Source: patent US20240336654A1, “ANTIMICROBIAL PEPTIDOMIMETICS” (SPEXIS AG, priority 2021, published 2024)
Where a SMILES comes first, the peptide text is derived from it. Bridges are numbered along the chain shown (N, C = ends). [ ]: non-standard residue; d: D form. The star is where a group is joined. Val(Nα-amidino) = CC(C)[C@H](NC(=N)N)C(=O)*; Hyp = O=C(O)[C@@H]1C[C@@H](O)CN1; Agb = N=C(N)NCC[C@H](N)C(=O)O; Pen = CC(C)(S)[C@H](N)C(=O)O; X1 = CC[C@H](NC(=N)N)C(=O)*; dDab = NCC[C@@H](N)C(=O)O; Orn = NCCC[C@H](N)C(=O)O; Dab = NCC[C@H](N)C(=O)O

What was measured:
Type in all cases: cell-based
[1] = system: Klebsiella pneumoniae SSI3010; settings: SSI3010
Method in brief: (§1)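 The MIC is the lowest peptide concentration, in μg/mL, with no visible growth after 18-20 h incubation at 35 °C. Serial two-fold peptide dilutions in water with 0.002% P-80 final were added to bacteria in cation-adjusted MHII broth, about 5×10^5 CFU/mL, following modified CLSI microdilution.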

[2] = system: Escherichia coli ATCC 25922; settings: ATCC 25922
Method in brief: as §1

[3] = system: Escherichia coli MCR-1 Af 45; settings: MCR-1 Af 45
Method in brief: as §1

[4] = system: human red blood cells (hRBC); settings: red cells of human, 1 h, 200 μg/mL
Method in brief: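 Peptides at 200 μg/mL incubated 1 h at 37 °C with 20% (v/v) washed human RBC, shaking. Hemolysis from supernatant OD540, expressed as percent of 2.5% Triton X-100 lysis, with PBS as 0%.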

| Structure (SMILES) | Klebsiella pneumoniae SSI3010 MIC [1] | Escherichia coli ATCC 25922 MIC [2] | Escherichia coli MCR-1 Af45 MIC [3] | Hemolysis at 0.2 g/L [4] |
| --- | --- | --- | --- | --- |
| CC[C@H](C)[C@H](NC(=O)[C@@H]1C[C@@H](O)CN1C(=O)[C@@H](NC(=N)N)C(C)C)C(=O)N[C@@H]1C(=O)N[C@@H](Cc2ccc(O)cc2)C(=O)N[C@@H](CCN)C(=O)N[C@@H](CC(N)=O)C(=O)N[C@@H](CCCNC(=N)N)C(=O)N[C@@H](CCN)C(=O)N[C@@H]([C@@H](C)O)C(=O)N[C@H](CCN)C(=O)N[C@@H](CCCCN)C(=O)N[C@@H]([C@@H](C)O)C(=O)N[C@@H](CO)C(=O)N[C@H](C(=O)N[C@@H](Cc2ccc(O)cc2)C(=O)O)CSSC1(C)C [Example 74, Gua-Val-Hyp-Ile-Pen-Tyr-Dab-Asn-Arg-Dab-Thr-^DDab-Lys-Thr-Ser-Cys-Tyr] ({Val(Nα-amidino)}-[Hyp]I[Pen]Y[Dab]NR[Dab]T[dDab]KTSCY-OH; disulfide 3-14) | 0.25 µg/mL | 0.25 µg/mL | 0.25 µg/mL | <1% |
| CC[C@H](C)[C@H](NC(=O)[C@@H]1C[C@@H](O)CN1C(=O)[C@@H](NC(=N)N)C(C)C)C(=O)N[C@@H]1C(=O)N[C@@H](Cc2ccc(O)cc2)C(=O)N[C@@H](CO)C(=O)N[C@@H](CC(N)=O)C(=O)N[C@@H](CCCNC(=N)N)C(=O)N[C@@H](CCN)C(=O)N[C@@H]([C@@H](C)O)C(=O)N[C@H](CCN)C(=O)N[C@@H](CCCCN)C(=O)N[C@@H](CCN)C(=O)N[C@@H](CCNC(=N)N)C(=O)N[C@H](C(=O)N[C@@H](Cc2ccc(O)cc2)C(=O)O)CSSC1(C)C [Example 75, Gua-Val-Hyp-Ile-Pen-Tyr-Ser-Asn-Arg-Dab-Thr-^DDab-Lys-Dab-Agb-Cys-Tyr] ({Val(Nα-amidino)}-[Hyp]I[Pen]YSNR[Dab]T[dDab]K[Dab][Agb]CY-OH; disulfide 3-14) | 0.125 µg/mL | 0.125 µg/mL | 0.0625 µg/mL | <1% |
| CC[C@H](NC(=N)N)C(=O)N1C[C@H](O)C[C@H]1C(=O)N[C@H](C(=O)N[C@@H]1C(=O)N[C@@H](Cc2ccc(O)cc2)C(=O)N[C@@H](CO)C(=O)N[C@@H](CC(N)=O)C(=O)N[C@@H](CCCNC(=N)N)C(=O)N[C@@H](CCN)C(=O)N[C@@H]([C@@H](C)O)C(=O)N[C@H](CCN)C(=O)N[C@@H](CCCCN)C(=O)N[C@@H](CCN)C(=O)N[C@@H](CCN)C(=O)N[C@H](C(=O)N[C@@H](Cc2ccc(O)cc2)C(=O)O)CSSC1(C)C)[C@@H](C)CC [Example 76, Gua-Abu-Hyp-Ile-Pen-Tyr-Ser-Asn-Arg-Dab-Thr-^DDab-Lys-Dab-Dab-Cys-Tyr] (X1-[Hyp]I[Pen]YSNR[Dab]T[dDab]K[Dab][Dab]CY-OH; disulfide 3-14) | 0.25 µg/mL | 1 µg/mL | 0.5 µg/mL | <1% |
| CC[C@H](C)[C@H](NC(=O)[C@@H]1C[C@@H](O)CN1C(=O)[C@@H](NC(=N)N)C(C)C)C(=O)N[C@@H]1C(=O)N[C@@H](Cc2ccc(O)cc2)C(=O)N[C@@H](CO)C(=O)N[C@@H](CC(N)=O)C(=O)N[C@@H](CCCNC(=N)N)C(=O)N[C@@H](CCN)C(=O)N[C@@H]([C@@H](C)O)C(=O)N[C@H](CCN)C(=O)N[C@@H](CCCCN)C(=O)N[C@@H](CCCN)C(=O)N[C@@H](CO)C(=O)N[C@H](C(=O)N[C@@H](Cc2ccc(O)cc2)C(=O)O)CSSC1(C)C [Example 77, Gua-Val-Hyp-Ile-Pen-Tyr-Ser-Asn-Arg-Dab-Thr-^DDab-Lys-Orn-Ser-Cys-Tyr] ({Val(Nα-amidino)}-[Hyp]I[Pen]YSNR[Dab]T[dDab]K[Orn]SCY-OH; disulfide 3-14) | 0.25 µg/mL | 0.25 µg/mL | 0.5 µg/mL | <1% |
